Consider eleven molecules from ChEMBL document CHEMBL4007478, “Diarylpentadienone derivatives (curcumin analogues): Synthesis and anti-inflammatory activity” (Bioorg Med Chem Lett, 2017).

Series [1] relates to RAW264.7. The series can be described thus: Anti-inflammatory activity in mouse RAW264.7 cells assessed as inhibition of LPS-induced IL-6 production at 20 uM by ELISA. Format: functional.
Series [2] deals with RAW264.7. Briefly: Anti-inflammatory activity in mouse RAW264.7 cells assessed as inhibition of LPS-induced TNFalpha production at 20 uM by ELISA. Format: functional.
Series [3] can be described thus: Aqueous solubility of the compound in water at 1 mg exposed to ultrasound for 1 hr measured after 30 mins by UV-spectrophotometric method. Format: physicochemical. The conditions noted are these: for solubility at 1 h: water.
The target in series [4] is Transcription factor p65 (Mus musculus) (UniProt Q04207). Briefly: Inhibition of LPS-induced NF-kB p65 activation in mouse RAW264.7 cells at 0.3 ug/ml preincubated for 12 hrs followed by LPS stimulation for 3 hrs by DAPI staining based inverted fluorescence microscopic method. It counts as cell-based.
Chain of Transcription factor p65 (Mus musculus) (Q04207 whole entry): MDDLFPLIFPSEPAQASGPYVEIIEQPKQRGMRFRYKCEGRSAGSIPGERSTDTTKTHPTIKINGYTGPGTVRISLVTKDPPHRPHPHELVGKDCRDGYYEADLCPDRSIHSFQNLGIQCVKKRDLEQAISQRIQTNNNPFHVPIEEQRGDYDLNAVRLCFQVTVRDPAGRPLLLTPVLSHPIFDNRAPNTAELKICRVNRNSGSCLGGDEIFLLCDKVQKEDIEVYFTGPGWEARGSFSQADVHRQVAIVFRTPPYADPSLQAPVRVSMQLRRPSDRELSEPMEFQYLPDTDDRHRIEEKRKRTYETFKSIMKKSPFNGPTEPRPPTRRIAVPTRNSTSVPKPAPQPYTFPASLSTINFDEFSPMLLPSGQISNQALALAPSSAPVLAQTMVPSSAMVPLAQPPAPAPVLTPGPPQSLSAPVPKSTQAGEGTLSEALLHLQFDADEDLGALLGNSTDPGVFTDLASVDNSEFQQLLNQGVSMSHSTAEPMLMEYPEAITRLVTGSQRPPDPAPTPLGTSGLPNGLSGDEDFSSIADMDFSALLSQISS
Series [5] shares this target. The series can be described thus: Inhibition of LPS-induced NF-kB p65 phosphorylation in mouse RAW264.7 cells at 0.3 ug/ml preincubated for 12 hrs followed by LPS stimulation for 3 hrs by Western blot method. Format: cell-based.
The target is the same in series [6]. Briefly: Inhibition of NF-kB p65 in mouse RAW264.7 cells assessed as reduction in LPS-induced iNOS expression at 0.3 ug/ml preincubated for 12 hrs followed by LPS stimulation for 3 hrs by Western blot method. It counts as cell-based.
The target is the same in series [7]. Briefly: Inhibition of NF-kB p65 in mouse RAW264.7 cells assessed as reduction in LPS-induced COX2 expression at 0.3 ug/ml preincubated for 12 hrs followed by LPS stimulation for 3 hrs by Western blot method. It counts as cell-based.

Converted amounts (≈) assume the structure as drawn. The source made the active and inactive calls. The rule behind the calls is not given here.

On to `COc1cc(/C=C/C(=O)CC(=O)/C=C/c2ccc(O)c(OC)c2)ccc1O` [CURCUMIN], for which the inhibition result in the series with RAW264.7 [1] and in the series with RAW264.7 [2] was “Active” each time. Further, the solubility in series [3] (1 h) stood at 12.87 µg/mL (≈ 34.9 µM).
Consider `CN(C)c1ccc(/C=C/C=C/C(=O)c2ccccc2Cl)cc1`, for which, in series [3], the solubility at 1 h was determined as 7.55 µg/mL (≈ 24.2 µM).
`O=C(/C=C/C=C/c1ccccc1)c1ccccc1Cl` showed a solubility at 1 h in series [3] of 8.2 µg/mL (≈ 30.5 µM).
In series [3], `COc1ccccc1/C=C/C=C/C(=O)c1ccccc1Cl` returned a solubility at 1 h of 9.45 µg/mL (≈ 31.6 µM).
As for `Cc1ccc(S(=O)(=O)/C=C/C#N)cc1`, the inhibition entry in series [4], in series [5], in series [6] and in series [7] was “Active” each time.
Take `CC(C)c1ccc(C(=O)/C=C/C=C/c2ccccc2)cc1`: the solubility at 1 h in series [3] was found to be 6.78 µg/mL (≈ 24.5 µM).
The molecule `O=C(/C=C/C=C/c1ccccc1)c1ccc([N+](=O)[O-])cc1` returned a solubility at 1 h in series [3] of 13.2 µg/mL (≈ 47.3 µM).
Turning to `COc1ccccc1/C=C/C=C/C(=O)c1ccc([N+](=O)[O-])cc1`, in series [3], the concentration in solution (solubility at 1 h) came to 13.9 µg/mL (≈ 45.1 µM).
Consider `COc1ccccc1/C=C/C=C/C(=O)c1cc(OC)c(OC)c(OC)c1`, for which the inhibition entry in the series on RAW264.7 [1] and in the series on RAW264.7 [2] was “Active” each time. For the same molecule, in series [3], the solubility at 1 h was determined as 25.9 µg/mL (≈ 73.1 µM).
In series [3], `O=C(/C=C/C=C/c1ccccc1)c1ccc(F)cc1F` gave a solubility at 1 h of 7.86 µg/mL (≈ 29.1 µM).
Take `COc1cc(C(=O)/C=C/C=C/c2ccccc2)cc(OC)c1OC`: the inhibition result in the series on RAW264.7 [1] and in the series on RAW264.7 [2] was “Active” throughout. The amount in solution in series [3] (solubility at 1 h) came to 20.3 µg/mL (≈ 62.7 µM).
